Results taken from US7390834B2, “Cyanophenoxy carboxylic acid compounds and compositions for delivering active agents” (Emisphere Technologies, Inc., priority 2000, dated 2008).

Columns and labels:
[1] = Oral and intracolonic delivery of heparin in rats (APTT); assay type: in vivo, Sprague-Dawley rats; settings: Heparin Dose 1 mg/kg, maximum of group means, n=5
Description: Oral gavage (PO) and intracolonic (IC) dosing solutions containing a delivery agent compound and heparin sodium USP in 25% aqueous propylene glycol were prepared. Either the sodium salt of the delivery agent compound was used or the free acid was converted to the sodium salt with one equivalent of sodium hydroxide. Typically, the delivery agent compound and heparin (about 166-182 IU/mg) were mixed by vortex as dry powders. This dry mixture was dissolved in 25% v/v aqueous propylene glycol, vortexed and placed in a sonicator (about 37° C.). The pH was adjusted to about 7 (6.5 to 8.5) with aqueous NaOH (2N). The dosing solution was sonicated to produce a clear solution. The final volume was adjusted to 3.0 mL. The final delivery agent compound dose, heparin dose and volume dose amounts are listed below in Table 2.
The typical dosing and sampling protocols were as follows. Male Sprague-Dawley rats weighing between 275-350 g were fasted for 24 hours and were anesthetized with ketamine hydrochloride (88 mg/kg) intramuscularly immediately prior to dosing. A dosing group of five rats was administered one of the dosing solutions. For oral gavage (PO) dosing, an 11 cm Rusch 8 French catheter was adapted to a 1 mL syringe with a pipette tip. The syringe was filled with dosing solution by drawing the solution through the catheter, which was then wiped dry. The catheter was placed down the esophagus leaving 1 cm of tubing past the rat's incisors. Solution was administered by pressing the syringe plunger. For intracolonic (IC) dosing, a 7.5 cm 8 fr Rusch catheter was adapted to a 1 ml syringe with a pipette tip. The dosing catheter was inserted into the colon through the anus until the tube was no longer visible. The dosing solution was expressed slowly into the colon.
Citrated blood samples were collected by cardiac puncture following the administration of ketamine (88 mg/kg), typically at time—0.25, 0.5, 1.0 and 1.5 hours. Heparin activity was determined by utilizing the activated partial thromboplastin time (APTT) according to the method of Henry, J. B., Clinical Diagnosis and Management by Laboratory Methods, Philadelphia, Pa., W. B. Saunders (1979). Previous studied indicated baseline values of about 20 sec. Results from the five rats in each group were averaged for each time point. The maximum is reported below in Table 2.

[2] = Oral, as printed: Volume Dose 300 ml/kg, Compound Dose 100 mg/kg

melting point [°C]	Compound	Mean Peak APTT (sec) ± SD ([1]; IC, as printed: Volume Dose 200 ml/kg, Compound Dose 25 mg/kg) [s]	Mean Peak APTT (sec) ± SD [1, 2] [s]	Mean Peak APTT (sec) ± SD ([1]; IC, as printed: Volume Dose 50 ml/kg, Compound Dose 25 mg/kg) [s]
77 to 80	N#Cc1ccccc1OCCCCCC(=O)O (hydrate or solvate) [Compound 4, 6-(2-cyanophenoxy)hexanoic acid]			
127 to 128	N#Cc1ccccc1OCCCC(=O)O [Compound 2, 4-(2-cyanophenoxy)butanoic acid]			
87 to 89	N#Cc1ccccc1OCCCCC(=O)O [Compound 3, 5-(2-cyanophenoxy) pentanoic acid]	16.23 ± 1.23	203.59 ± 72.97	
83 to 85	N#Cc1ccccc1OCCCCCCCC(=O)O [Compound 5, 8-(2-cyanophenoxy) octanoic acid]		176.25 ± 175.01	80.22 ± 45.70
82 to 84	N#Cc1ccccc1OCCCCCCCCCC(=O)O [Compound 6, 10-(2-cyanophenoxy)decanoic acid]			
87 to 90	N#Cc1cc(Cl)ccc1OCCCCC(=O)O [Compound 7, 5-(4-chloro-2-cyanophenoxy)pentanoic acid]			
137 to 140	N#Cc1ccc(OCCCCCCCC(=O)O)cc1 [Compound 8, 8-(4-cyanophenoxy)octanoic acid]			
199 to 203	N#Cc1ccccc1OCc1ccc(C(=O)O)cc1 [Compound 9, 4-(2-cyanophenoxymethyl)benzoic acid]			
